# What was measured:
# [1] = molecular target: T1, Leukotriene B4 receptor 1 (Homo sapiens, UniProt Q15722); assay: Antagonistic activity in human polymorphonuclear (PMN) LTB4 receptor; format: functional
# [2] = Effect on LTB4-induced neutrophil function (neutropenia) after systemic administration of 0.3 micro/kg to cynomolgus monkey.; format: functional, Cercopithecidae
# [3] = Effect on LTB4-induced neutrophil function (neutrophilia) after systemic administration of 0.3 micro/kg to cynomolgus monkey.; format: functional, Cercopithecidae
# [4] = molecular target: T1, Leukotriene B4 receptor 1; assay: Antagonistic activity against human polymorphonuclear (PMN) LTB4 receptor; format: functional
# T1 sequence (Q15722 whole entry): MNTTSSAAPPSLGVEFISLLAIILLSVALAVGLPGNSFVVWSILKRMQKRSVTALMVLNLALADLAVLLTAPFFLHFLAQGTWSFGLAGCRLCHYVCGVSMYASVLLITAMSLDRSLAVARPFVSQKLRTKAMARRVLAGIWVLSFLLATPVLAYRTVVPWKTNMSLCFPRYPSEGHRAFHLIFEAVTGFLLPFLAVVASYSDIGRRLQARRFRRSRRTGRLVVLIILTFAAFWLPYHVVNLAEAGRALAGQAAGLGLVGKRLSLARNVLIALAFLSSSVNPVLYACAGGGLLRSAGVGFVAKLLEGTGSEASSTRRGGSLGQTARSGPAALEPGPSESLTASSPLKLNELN
smiles,measurement,setting,value
CN(CCc1ccccc1)C(=O)Cc1ccc(OCc2ccccc2)cc1,IC50,[1],4700 nM
CN(CCc1ccccc1)C(=O)Cc1cc(C(=O)O)cc2c(OCc3ccccc3)cccc12,Inhibition,[2],61%
same,Inhibition,[3],73%
COc1ccc(/C=C/CCCCOc2ccc(C(=O)c3cccc(C(=O)O)c3)cc2CCC(=O)O)cc1,IC50,[4],12 nM

# Source: ChEMBL document CHEMBL1126258, “4-[2-[Methyl(2-phenethyl)amino]-2-oxoethyl]-8-(phenylmethoxy)-2- naphthalenecarboxylic acid: a high affinity, competitive, orally active leukotriene B4 receptor antagonist” (J Med Chem, 1992)
